In US20230372498A1, “PLK1 SELECTIVE DEGRADATION INDUCING COMPOUND” (UPPTHERA, priority 2020, published 2023):

Target: T1, PLK1 (Homo sapiens, UniProt P53350)
T1 construct: endogenous in cells; host or cells: HeLa
Assay: PLK1 protein degradation in HeLa cells, Western blotting (PLK1/GAPDH ratio)
Format: cell-based
Settings: 6 hours compound incubation; for DC50: measured only if the grade of Dmax is A or B; for Dmax: thymidine block and release, 10 points three-fold from 3 μM, PLK1 to GAPDH ratio, read-out: Dmax
How it was run: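 Thymidine-synchronised HeLa cells (2 mM, 24 h) released 4 h into complete medium, then treated 6 h with compound in 10-point 3-fold dilutions from 3 μM. RIPA lysates (15 μg protein) run on SDS-PAGE; PLK1 Western blot normalised to GAPDH.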

T1 sequence (P53350 whole entry): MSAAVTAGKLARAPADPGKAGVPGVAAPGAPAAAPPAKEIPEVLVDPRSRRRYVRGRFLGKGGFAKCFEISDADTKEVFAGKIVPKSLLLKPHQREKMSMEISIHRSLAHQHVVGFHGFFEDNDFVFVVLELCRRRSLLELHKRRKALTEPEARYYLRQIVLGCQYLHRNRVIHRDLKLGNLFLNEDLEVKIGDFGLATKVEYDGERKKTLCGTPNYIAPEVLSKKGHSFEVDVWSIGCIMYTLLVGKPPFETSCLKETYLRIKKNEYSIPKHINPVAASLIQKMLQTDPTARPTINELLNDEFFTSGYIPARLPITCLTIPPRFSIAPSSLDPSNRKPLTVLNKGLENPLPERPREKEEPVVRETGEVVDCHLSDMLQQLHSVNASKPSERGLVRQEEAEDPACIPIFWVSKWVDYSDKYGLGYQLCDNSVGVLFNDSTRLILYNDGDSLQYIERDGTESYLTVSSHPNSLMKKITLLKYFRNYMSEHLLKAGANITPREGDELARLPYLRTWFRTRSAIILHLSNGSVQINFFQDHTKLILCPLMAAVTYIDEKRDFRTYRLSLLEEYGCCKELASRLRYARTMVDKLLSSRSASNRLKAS

| SMILES | DC50 | Dmax |
| --- | --- | --- |
| COc1cc(C(=O)NC2CCN(CCOCCCCCCCCOCC(=O)Nc3cccc4c3C(=O)N(C3CCC(=O)NC3=O)C4=O)CC2)c(F)cc1Nc1ncc2c(n1)N(C1CCCC1)CC(F)(F)C(=O)N2C (centres unmarked) [Compound 28, 4-((9-cyclopentyl-7,7-difluoro-5-methyl-6-oxo-6,7,8,9-tetrahydro-5H-pyrimido[4,5-b][1,4]diazepin-2-yl)amino)-N-(1-(2-((8-(2-((2-(2,6-dioxopiperidin-3-yl)-1,3-dioxoisoindolin-4-yl)amino)-2-oxoethoxy)octyl)oxy)ethyl)piperidin-4-yl)-2-fluoro-5-methoxybenzamide] | ≤ 500 nM | 60 to 80% |
| COc1cc(C(=O)NC2CCN(CCOCCNC(=O)CNc3cccc4c3C(=O)N(C3CCC(=O)NC3=O)C4=O)CC2)c(F)cc1Nc1ncc2c(n1)N(C1CCCC1)CC(F)(F)C(=O)N2C (centres unmarked) [Compound 29, 4-((9-cyclopentyl-7,7-difluoro-5-methyl-6-oxo-6,7,8,9-tetrahydro-5H-pyrimido[4,5-b][1,4]diazepin-2-yl)amino)-N-(1-(2-(2-(2-((2-(2,6-dioxopiperidin-3-yl)-1,3-dioxoisoindolin-4-yl)amino)acetamido)ethoxy)ethyl)piperidin-4-yl)-2-fluoro-5-methoxybenzamide] | ≤ 50 nM | ≥ 80% |
| COc1cc(C(=O)NC2CCN(CCOCCOCCOCCNC(=O)CNc3cccc4c3C(=O)N(C3CCC(=O)NC3=O)C4=O)CC2)c(F)cc1Nc1ncc2c(n1)N(C1CCCC1)CC(F)(F)C(=O)N2C (centres unmarked) [Compound 30, 4-((9-cyclopentyl-7,7-difluoro-5-methyl-6-oxo-6,7,8,9-tetrahydro-5H-pyrimido[4,5-b][1,4]diazepin-2-yl)amino)-N-(1-(1-((2-(2,6-dioxopiperidin-3-yl)-1,3-dioxoisoindolin-4-yl)amino)-2-oxo-6,9,12-trioxa-3-azatetradecan-14-yl)piperidin-4-yl)-2-fluoro-5-methoxybenzamide] | ≤ 50 nM | ≥ 80% |
| COc1cc(C(=O)NC2CCN(C(=O)COCCNc3cccc4c3C(=O)N(C3CCC(=O)NC3=O)C4=O)CC2)c(F)cc1Nc1ncc2c(n1)N(C1CCCC1)CC(F)(F)C(=O)N2C (centres unmarked) [Compound 31, 4-((9-cyclopentyl-7,7-difluoro-5-methyl-6-oxo-6,7,8,9-tetrahydro-5H-pyrimido[4,5-b][1,4]diazepin-2-yl)amino)-N-(1-(2-(2-((2-(2,6-dioxopiperidin-3-yl)-1,3-dioxoisoindolin-4-yl)amino)ethoxy)acetyl)piperidin-4-yl)-2-fluoro-5-methoxybenzamide] |  | < 60% |
| COc1cc(C(=O)NC2CCN(C(=O)CCOCCNc3cccc4c3C(=O)N(C3CCC(=O)NC3=O)C4=O)CC2)c(F)cc1Nc1ncc2c(n1)N(C1CCCC1)CC(F)(F)C(=O)N2C (centres unmarked) [Compound 32, 4-((9-cyclopentyl-7,7-difluoro-5-methyl-6-oxo-6,7,8,9-tetrahydro-5H-pyrimido[4,5-b][1,4]diazepin-2-yl)amino)-N-(1-(3-(2-((2-(2,6-dioxopiperidin-3-yl)-1,3-dioxoisoindolin-4-yl)amino)ethoxy)propanoyl)piperidin-4-yl)-2-fluoro-5-methoxybenzamide] | ≤ 50 nM | ≥ 80% |
| COc1cc(C(=O)NC2CCN(C(=O)COCCOCCNc3cccc4c3C(=O)N(C3CCC(=O)NC3=O)C4=O)CC2)c(F)cc1Nc1ncc2c(n1)N(C1CCCC1)CC(F)(F)C(=O)N2C (centres unmarked) [Compound 33, 4-((9-cyclopentyl-7,7-difluoro-5-methyl-6-oxo-6,7,8,9-tetrahydro-5H-pyrimido[4,5-b][1,4]diazepin-2-yl)amino)-N-(1-(2-(2-(2-((2-(2,6-dioxopiperidin-3-yl)-1,3-dioxoisoindolin-4-yl)amino)ethoxy)ethoxy)acetyl)piperidin-4-yl)-2-fluoro-5-methoxybenzamide] | ≤ 50 nM | ≥ 80% |
